Measurements taken from US10633353B2, “Polymerizable compound, composition, polymer, optically anisotropic body, liquid crystal display element, and organic EL display” (DIC Corporation, priority 2014, dated 2020).

assay: Preservation stability of the coating liquid; format: physicochemical; details: coating liquid stored for 2 months shielded from light at 0° C.; appearance and GPC
Procedure: The preservation stability of the coating liquid was evaluated on a scale of A to E on the basis of the state of the coating liquid that was stored for 2 months under a condition where the coating liquid was shielded from light at 0° C.
A: No visual change in the appearance of the coating liquid was confirmed. A GPC analysis of the coating liquid confirmed that the change in the composition of the coating liquid was 1% or less.
B: No visual change in the appearance of the coating liquid was confirmed. A GPC analysis of the coating liquid confirmed that the change in the composition of the coating liquid was 2% or less.
C: A visual change in the appearance of the coating liquid was confirmed; a trace amount of insoluble components were confirmed, or a GPC analysis of the coating liquid confirmed that the change in the composition of the coating liquid was 3% or less.
D: A visual change in the appearance of the coating liquid was confirmed; insoluble components were confirmed. The ratio of the weight of the insoluble components to the total solid content was 5% or less.
E: A large amount of insoluble components were visually confirmed. The ratio of the weight of the insoluble components to the total solid content was 5% or more.

**Q.** Which Preservation stability does the source give for C=CC(=O)Oc1ccc(C(=O)OCCc2ccc(OC(=O)c3ccc(OC(=O)C=C)cc3)c(/C=N/Nc3nc4ccccc4s3)c2)cc1 [1-cg-36] here?
**A.** The Preservation stability was “B (No visual change in the appearance of the coating liquid was confirmed. A GPC analysis of the coating liquid confirmed that the change in the composition of the coating liquid was 2% or less.)”.

**Q.** With C=CC(=O)OCCCOc1ccc(/C=C/C(=O)Oc2ccc(OC(=O)/C=C/c3ccc(OCCCOC(=O)C=C)c(Cl)c3)c(/C=N/Nc3nc4ccccc4s3)c2)cc1Cl [1-c-47] as the compound, how does the Preservation stability read?
**A.** The Preservation stability was “B (No visual change in the appearance of the coating liquid was confirmed. A GPC analysis of the coating liquid confirmed that the change in the composition of the coating liquid was 2% or less.)”.

**Q.** Which Preservation stability does the source give for C=CC(=O)OCCCCOC(=O)/C=C/c1ccc(C(=O)Oc2ccc(OC(=O)c3ccc(/C=C/C(=O)OCCCCOC(=O)C=C)cc3)c(/C=N/Nc3nc4ccc5ccccc5c4s3)c2)cc1 [1-j-65] here?
**A.** Its Preservation stability is “B (No visual change in the appearance of the coating liquid was confirmed. A GPC analysis of the coating liquid confirmed that the change in the composition of the coating liquid was 2% or less.)”.

**Q.** For C=CC(=O)OCCCOc1ccc(C(=O)Oc2ccc3cc(C(=O)Oc4ccc(OCCCOC(=O)C=C)cc4/C=N/Nc4nc5ccccc5s4)ccc3c2)cc1 [1-eh-74], which Preservation stability is on record?
**A.** Its Preservation stability is “A (No visual change in the appearance of the coating liquid was confirmed. A GPC analysis of the coating liquid confirmed that the change in the composition of the coating liquid was 1% or less.)”.

**Q.** Which Preservation stability does the source give for C=CC(=O)OCCCCOc1ccc(CCC(=O)Oc2ccc(OC(=O)CCc3ccc(OCCCCOC(=O)C=C)cc3)c(/C=N/Nc3nc4ccccc4s3)c2)cc1 [1-c-50] here?
**A.** The Preservation stability was “A (No visual change in the appearance of the coating liquid was confirmed. A GPC analysis of the coating liquid confirmed that the change in the composition of the coating liquid was 1% or less.)”.

**Q.** Which Preservation stability does the source give for C=CC(=O)OCCCCCCOC(=O)/C=C/c1ccc(C(=O)Oc2ccc(OC(=O)c3ccc(/C=C/C(=O)OCCCCCCOC(=O)C=C)cc3)c(/C=N/Nc3nc4ccccc4s3)c2)cc1 [1-j-62] here?
**A.** Its Preservation stability is “B (No visual change in the appearance of the coating liquid was confirmed. A GPC analysis of the coating liquid confirmed that the change in the composition of the coating liquid was 2% or less.)”.

**Q.** With C=CC(=O)OCCCCCCOc1ccc(C(=O)Oc2ccc(OC(=O)c3ccc(OCCCCCCOC(=O)C=C)cc3)c(/C=N/N(CCCCCC)c3nc4ccccc4s3)c2)cc1 [1-cn-83] as the compound, how does the Preservation stability read?
**A.** Its Preservation stability is “A (No visual change in the appearance of the coating liquid was confirmed. A GPC analysis of the coating liquid confirmed that the change in the composition of the coating liquid was 1% or less.)”.

**Q.** With C=CC(=O)OCCCCCOc1ccc(OC(=O)C2CCC(C(=O)OCCc3ccc(OC(=O)C4CCC(C(=O)Oc5ccc(OCCCCCOC(=O)C=C)cc5)CC4)c(C=NNc4nc5ccccc5s4)c3)CC2)cc1 (centres unmarked) [1-c-15] as the compound, how does the Preservation stability read?
**A.** The Preservation stability was “A (No visual change in the appearance of the coating liquid was confirmed. A GPC analysis of the coating liquid confirmed that the change in the composition of the coating liquid was 1% or less.)”.

**Q.** For C=CC(=O)OCCCOC(=O)/C=C/c1ccc(C(=O)Oc2ccc(OC(=O)c3ccc(/C=C/C(=O)OCCCOC(=O)C=C)cc3OC)c(/C=N/Nc3nc4ccccc4s3)c2)c(OC)c1 [1-j-57], which Preservation stability is on record?
**A.** Its Preservation stability is “B (No visual change in the appearance of the coating liquid was confirmed. A GPC analysis of the coating liquid confirmed that the change in the composition of the coating liquid was 2% or less.)”.

**Q.** With C=CC(=O)OCCCCCCOc1ccc(C#Cc2ccc(C#Cc3ccc(OCCCCCCOC(=O)C=C)cc3)c(/C=N/Nc3nc4ccccc4s3)c2)cc1 [1-c-68] as the compound, how does the Preservation stability read?
**A.** The Preservation stability was “B (No visual change in the appearance of the coating liquid was confirmed. A GPC analysis of the coating liquid confirmed that the change in the composition of the coating liquid was 2% or less.)”.

**Q.** For C=C(C)C(=O)OCCCCCCOc1ccc(C(=O)OCCc2ccc(OC(=O)c3ccc(OCCCCCCOC(=O)C(=C)C)cc3)c(/C=N/Nc3nc4ccccc4s3)c2)cc1 [1-c-8], which Preservation stability is on record?
**A.** The Preservation stability was “A (No visual change in the appearance of the coating liquid was confirmed. A GPC analysis of the coating liquid confirmed that the change in the composition of the coating liquid was 1% or less.)”.

**Q.** Which Preservation stability does the source give for C=CC(=O)Oc1ccc(C(=O)Oc2ccc(OC(=O)c3ccc(OC(=O)C=C)cc3)c(/C=N/Nc3nc4ccccc4s3)c2)cc1 [1-g-35] here?
**A.** The Preservation stability was “B (No visual change in the appearance of the coating liquid was confirmed. A GPC analysis of the coating liquid confirmed that the change in the composition of the coating liquid was 2% or less.)”.

**Q.** Which Preservation stability does the source give for C=CC(=O)OCCCOc1ccc(CCC(=O)Oc2ccc(OC(=O)CCc3ccc(OCCCOC(=O)C=C)cc3)c(/C=N/Nc3nc4ccccc4s3)c2)cc1 [1-c-49] here?
**A.** The Preservation stability was “A (No visual change in the appearance of the coating liquid was confirmed. A GPC analysis of the coating liquid confirmed that the change in the composition of the coating liquid was 1% or less.)”.

**Q.** For C=CC(=O)OCCCCCOc1ccc(C(=O)OCCc2ccc(OC(=O)c3ccc(OCCCCCOC(=O)C=C)cc3)c(/C=N/Nc3nc4cc(O)c([N+](=O)[O-])cc4[nH]3)c2)cc1 [1-c-29], which Preservation stability is on record?
**A.** Its Preservation stability is “B (No visual change in the appearance of the coating liquid was confirmed. A GPC analysis of the coating liquid confirmed that the change in the composition of the coating liquid was 2% or less.)”.

**Q.** For C=CC(=O)OCCCOc1ccc(C#Cc2ccc(C#Cc3ccc(OCCCOC(=O)C=C)cc3)c(/C=N/Nc3nc4ccccc4s3)c2)cc1 [1-c-67], which Preservation stability is on record?
**A.** Its Preservation stability is “B (No visual change in the appearance of the coating liquid was confirmed. A GPC analysis of the coating liquid confirmed that the change in the composition of the coating liquid was 2% or less.)”.

**Q.** With C=CC(=O)OCCCOc1ccc(C(=O)OCCc2ccc(OC(=O)c3ccc(OCCCOC(=O)C=C)cc3)c(/C=N/Nc3nc4cc(CCC)ccc4s3)c2)cc1 [1-c-26] as the compound, how does the Preservation stability read?
**A.** Its Preservation stability is “A (No visual change in the appearance of the coating liquid was confirmed. A GPC analysis of the coating liquid confirmed that the change in the composition of the coating liquid was 1% or less.)”.

**Q.** For C=CC(=O)OCCCCCCOc1ccc(OCCOc2ccc(OCCOc3ccc(OCCCCCCOC(=O)C=C)cc3)c(/C=N/Nc3nc4ccccc4s3)c2)cc1 [1-c-80], which Preservation stability is on record?
**A.** The Preservation stability was “A (No visual change in the appearance of the coating liquid was confirmed. A GPC analysis of the coating liquid confirmed that the change in the composition of the coating liquid was 1% or less.)”.

**Q.** With C=CC(=O)OCCCCOC(=O)C1CCC(C(=O)OC2CCC(C(=O)Oc3ccc(OC(=O)C4CCC(OC(=O)C5CCC(C(=O)OCCCCOC(=O)C=C)CC5)CC4)c(/C=N/N(CCCC)c4nc5ccccc5s4)c3)CC2)CC1 (centres unmarked) [1-f-99] as the compound, how does the Preservation stability read?
**A.** Its Preservation stability is “A (No visual change in the appearance of the coating liquid was confirmed. A GPC analysis of the coating liquid confirmed that the change in the composition of the coating liquid was 1% or less.)”.

**Q.** For C=CC(=O)OCCCCOC(=O)C1CCC(C(=O)OC2CCC(C(=O)Oc3ccc(OC(=O)C4CCC(OC(=O)C5CCC(C(=O)OCCCCOC(=O)C=C)CC5)CC4)c(/C=N/N(CCCCCC)c4nc5ccccc5s4)c3)CC2)CC1 (centres unmarked) [1-f-97], which Preservation stability is on record?
**A.** Its Preservation stability is “A (No visual change in the appearance of the coating liquid was confirmed. A GPC analysis of the coating liquid confirmed that the change in the composition of the coating liquid was 1% or less.)”.

**Q.** For C=CC(=O)OCCCOc1ccc(C(=O)OCCc2ccc(OC(=O)c3ccc(OCCCOC(=O)C=C)cc3)c(/C=N/Nc3nc4cc(Cl)ccc4s3)c2)cc1 [1-c-24], which Preservation stability is on record?
**A.** Its Preservation stability is “B (No visual change in the appearance of the coating liquid was confirmed. A GPC analysis of the coating liquid confirmed that the change in the composition of the coating liquid was 2% or less.)”.

**Q.** With C=CC(=O)OCCCOc1ccc(OC(=O)C2CCC(COc3ccc(OCC4CCC(C(=O)Oc5ccc(OCCCOC(=O)C=C)cc5)CC4)c(/C=N/N(C(=O)C=C)c4nc5ccccc5s4)c3)CC2)cc1 (centres unmarked) [1-cmn-107] as the compound, how does the Preservation stability read?
**A.** Its Preservation stability is “A (No visual change in the appearance of the coating liquid was confirmed. A GPC analysis of the coating liquid confirmed that the change in the composition of the coating liquid was 1% or less.)”.

**Q.** Which Preservation stability does the source give for C=CC(=O)OCCCCCCOc1ccc(OC(=O)C2CCC(COc3ccc(OCC4CCC(C(=O)Oc5ccc(OCCCCCCOC(=O)C=C)cc5)CC4)c(/C=N/Nc4nc5ccccc5s4)c3)CC2)cc1 (centres unmarked) [1-cm-88] here?
**A.** Its Preservation stability is “A (No visual change in the appearance of the coating liquid was confirmed. A GPC analysis of the coating liquid confirmed that the change in the composition of the coating liquid was 1% or less.)”.

**Q.** Which Preservation stability does the source give for C=CC(=O)OCCCOc1ccc(C(=O)OCCc2ccc(CCOC(=O)c3ccc(OCCCOC(=O)C=C)cc3)c(/C=N/N(C(=O)C=C)c3nc(-c4ccc5ccccc5c4)cs3)c2)cc1 [1-c-41] here?
**A.** The Preservation stability was “A (No visual change in the appearance of the coating liquid was confirmed. A GPC analysis of the coating liquid confirmed that the change in the composition of the coating liquid was 1% or less.)”.

**Q.** Which Preservation stability does the source give for C=CC(=O)OCCCCCCOc1ccc(OC(=O)C2CCC(COc3ccc(OCC4CCC(C(=O)Oc5ccc(OCCCCCCOC(=O)C=C)cc5)CC4)c(/C=N/N(CCOCCOC)c4nc5ccccc5s4)c3)CC2)cc1 (centres unmarked) [1-cmn-91] here?
**A.** Its Preservation stability is “A (No visual change in the appearance of the coating liquid was confirmed. A GPC analysis of the coating liquid confirmed that the change in the composition of the coating liquid was 1% or less.)”.

**Q.** With C=CC(=O)OCCCCCCOc1ccc(C(=O)OCCc2ccc(OC(=O)c3ccc(OCCCCCCOC(=O)C=C)cc3)c(/C=N/Nc3nc4cc([N+](=O)[O-])ccc4s3)c2)cc1 [1-c-30] as the compound, how does the Preservation stability read?
**A.** Its Preservation stability is “B (No visual change in the appearance of the coating liquid was confirmed. A GPC analysis of the coating liquid confirmed that the change in the composition of the coating liquid was 2% or less.)”.

**Q.** With C=CC(=O)OCCCCOC1CCC(C(=O)Oc2ccc(OC(=O)C3CCC(OCCCCOC(=O)C=C)CC3)c(/C=N/Nc3nc4ccccc4s3)c2)CC1 (centres unmarked) [1-f-18] as the compound, how does the Preservation stability read?
**A.** Its Preservation stability is “A (No visual change in the appearance of the coating liquid was confirmed. A GPC analysis of the coating liquid confirmed that the change in the composition of the coating liquid was 1% or less.)”.
